Species: Rattus norvegicus
Assay: Open TG-GATES - Regimen: Daily Repeat
Type: toxicity, organism-based, Sprague-Dawley
Parameters: regimen Daily Repeat, gender Male, age 6 weeks
Conditions: in vivo, po, route gavage; for APTT / Bas / Eos / Fbg / Hb / Ht / Lym / MCH / MCHC / MCV / Mono / Neu / PT / Plat / RBC / Ret / WBC: tissue Blood; for KIDNEY_L / KIDNEY_R / KIDNEY_TOTAL: tissue Kidney; for LIVER: tissue Liver; for A/G / ALP / ALT / AST / BUN / CRE / Ca / Cl / DBIL / GLC / IP / K / LDH / Na / PL / RALB / TBIL / TC / TG / TP / gamma-GTP: tissue Plasma
[1] = 60 mg/kg, 72 h, dose level Middle, time 3 day
[2] = 60 mg/kg, […], dose level Middle, time 7 day
[3] = 60 mg/kg, […], dose level Middle, time 14 day
[4] = 60 mg/kg, […], dose level Middle, time 28 day
[5] = 200 mg/kg, 72 h, dose level High, time 3 day
[6] = 200 mg/kg, […], dose level High, time 7 day
[7] = 200 mg/kg, […], dose level High, time 14 day
[8] = 200 mg/kg, […], dose level High, time 28 day

## CCc1oc2ccccc2c1C(=O)c1cc(Br)c(O)c(Br)c1 [BENZBROMARONE]
[1]
  TERMINAL_BW: 238.9 g
  APTT: 16.6 s
  Bas: 0%
  Eos: 1%
  Fbg: 234.4 mg/dL
  Hb: 13.5 g/dL
  Ht: 40%
  Lym: 76.4%
  MCH: 21.6 pg
  MCHC: 33.8%
  MCV: 63.7 fL
  Mono: 7.2%
  Neu: 15.8%
  PT: 11.6 s
  Plat: 109.3 x10_4/uL
  RBC: 628.4 x10_4/ul
  Ret: 7.7%
  WBC: 107.1 x10_2/uL
  KIDNEY_L: 1.1 g
  KIDNEY_R: 1.1 g
  KIDNEY_TOTAL: 2.1 g
  LIVER: 14.3 g
  A/G: 2
  ALP: 793.8 IU/L
  ALT: 33.6 IU/L
  AST: 62.2 IU/L
  BUN: 18 mg/dL
  CRE: 0.6 mg/dL
  Ca: 10.3 mg/dL
  Cl: 106.2 meq/L
  DBIL: 0.014 mg/dL
  GLC: 190 mg/dL
  IP: 7.8 mg/dL
  K: 4.5 meq/L
  LDH: 104.4 IU/L
  Na: 140.2 meq/L
  PL: 138 mg/dL
  RALB: 4 g/dL
  TBIL: 0.3 mg/dL
  TC: 76.4 mg/dL
  TG: 62.8 mg/dL
  TP: 5.9 g/dL
  gamma-GTP: 0.8 IU/L
[2]
  TERMINAL_BW: 264.4 g
  APTT: 17.8 s
  Bas: 0%
  Eos: 1.2%
  Fbg: 234.6 mg/dL
  Hb: 14.4 g/dL
  Ht: 42.8%
  Lym: 80.8%
  MCH: 21.3 pg
  MCHC: 33.7%
  MCV: 63.3 fL
  Mono: 6.4%
  Neu: 11%
  PT: 12.2 s
  Plat: 119.4 x10_4/uL
  RBC: 675.2 x10_4/ul
  Ret: 5.6%
  WBC: 106.8 x10_2/uL
  KIDNEY_L: 1.2 g
  KIDNEY_R: 1.2 g
  KIDNEY_TOTAL: 2.4 g
  LIVER: 16.1 g
  A/G: 2.4
  ALP: 869.6 IU/L
  ALT: 28 IU/L
  AST: 57 IU/L
  BUN: 20 mg/dL
  CRE: 0.6 mg/dL
  Ca: 10.5 mg/dL
  Cl: 107.4 meq/L
  DBIL: 0 mg/dL
  GLC: 186.8 mg/dL
  IP: 7.8 mg/dL
  K: 5 meq/L
  LDH: 96.2 IU/L
  Na: 139.7 meq/L
  PL: 154 mg/dL
  RALB: 4.4 g/dL
  TBIL: 0.3 mg/dL
  TC: 82.6 mg/dL
  TG: 80 mg/dL
  TP: 6.3 g/dL
  gamma-GTP: 0.2 IU/L
[3]
  TERMINAL_BW: 327 g
  APTT: 17.5 s
  Bas: 0%
  Eos: 1%
  Fbg: 237 mg/dL
  Hb: 14.5 g/dL
  Ht: 43.2%
  Lym: 79.4%
  MCH: 21.1 pg
  MCHC: 33.5%
  MCV: 63.1 fL
  Mono: 7%
  Neu: 12.4%
  PT: 12.1 s
  Plat: 110.5 x10_4/uL
  RBC: 685.4 x10_4/ul
  Ret: 4.6%
  WBC: 129.3 x10_2/uL
  KIDNEY_L: 1.4 g
  KIDNEY_R: 1.3 g
  KIDNEY_TOTAL: 2.7 g
  LIVER: 20.1 g
  A/G: 2.1
  ALP: 872.6 IU/L
  ALT: 29.4 IU/L
  AST: 57.8 IU/L
  BUN: 20.2 mg/dL
  CRE: 0.6 mg/dL
  Ca: 10.5 mg/dL
  Cl: 106.3 meq/L
  DBIL: 0.01 mg/dL
  GLC: 191.4 mg/dL
  IP: 7.6 mg/dL
  K: 4.7 meq/L
  LDH: 97.4 IU/L
  Na: 140.3 meq/L
  PL: 156.4 mg/dL
  RALB: 4.5 g/dL
  TBIL: 0.3 mg/dL
  TC: 85.6 mg/dL
  TG: 85.8 mg/dL
  TP: 6.6 g/dL
  gamma-GTP: 0.8 IU/L
[4]
  TERMINAL_BW: 383.7 g
  APTT: 18.4 s
  Bas: 0%
  Eos: 1.6%
  Fbg: 232.6 mg/dL
  Hb: 15.2 g/dL
  Ht: 45.8%
  Lym: 84.2%
  MCH: 19.3 pg
  MCHC: 33.1%
  MCV: 58.2 fL
  Mono: 6%
  Neu: 8.8%
  PT: 12.3 s
  Plat: 107.4 x10_4/uL
  RBC: 787.4 x10_4/ul
  Ret: 2.8%
  WBC: 139.8 x10_2/uL
  KIDNEY_L: 1.5 g
  KIDNEY_R: 1.5 g
  KIDNEY_TOTAL: 2.9 g
  LIVER: 21.5 g
  A/G: 1.9
  ALP: 605.2 IU/L
  ALT: 34 IU/L
  AST: 54 IU/L
  BUN: 19.2 mg/dL
  CRE: 0.6 mg/dL
  Ca: 9.9 mg/dL
  Cl: 108.4 meq/L
  DBIL: 0.016 mg/dL
  GLC: 185.2 mg/dL
  IP: 6.9 mg/dL
  K: 4.5 meq/L
  LDH: 147.4 IU/L
  Na: 141 meq/L
  PL: 144.6 mg/dL
  RALB: 4.3 g/dL
  TBIL: 0.2 mg/dL
  TC: 84.4 mg/dL
  TG: 75.4 mg/dL
  TP: 6.6 g/dL
  gamma-GTP: 1 IU/L
[5]
  TERMINAL_BW: 217 g
  APTT: 22.6 s
  Bas: 0%
  Eos: 1.2%
  Fbg: 211 mg/dL
  Hb: 14 g/dL
  Ht: 41.9%
  Lym: 80%
  MCH: 21.9 pg
  MCHC: 33.5%
  MCV: 65.5 fL
  Mono: 5%
  Neu: 14.2%
  PT: 14.6 s
  Plat: 104.6 x10_4/uL
  RBC: 640.8 x10_4/ul
  Ret: 5.7%
  WBC: 124.5 x10_2/uL
  KIDNEY_L: 1 g
  KIDNEY_R: 1 g
  KIDNEY_TOTAL: 2 g
  LIVER: 15.3 g
  A/G: 2.6
  ALP: 1041.8 IU/L
  ALT: 45.5 IU/L
  AST: 69.2 IU/L
  BUN: 17 mg/dL
  CRE: 0.7 mg/dL
  Ca: 10 mg/dL
  Cl: 107.9 meq/L
  DBIL: 0.025 mg/dL
  GLC: 167.2 mg/dL
  IP: 6.7 mg/dL
  K: 4.4 meq/L
  LDH: 195 IU/L
  Na: 141.3 meq/L
  PL: 129.2 mg/dL
  RALB: 4.1 g/dL
  TBIL: 0.3 mg/dL
  TC: 73.2 mg/dL
  TG: 52.8 mg/dL
  TP: 5.7 g/dL
  gamma-GTP: 1 IU/L
[6]
  TERMINAL_BW: 254.9 g
  APTT: 18.9 s
  Bas: 0%
  Eos: 1.5%
  Fbg: 238.5 mg/dL
  Hb: 14.4 g/dL
  Ht: 42.8%
  Lym: 75.5%
  MCH: 21.6 pg
  MCHC: 33.6%
  MCV: 64.1 fL
  Mono: 7%
  Neu: 16.2%
  PT: 12.2 s
  Plat: 113.7 x10_4/uL
  RBC: 668.5 x10_4/ul
  Ret: 5.2%
  WBC: 92.8 x10_2/uL
  KIDNEY_L: 1.1 g
  KIDNEY_R: 1.1 g
  KIDNEY_TOTAL: 2.1 g
  LIVER: 18.9 g
  A/G: 2.6
  ALP: 853.5 IU/L
  ALT: 34.2 IU/L
  AST: 61.2 IU/L
  BUN: 22 mg/dL
  CRE: 0.6 mg/dL
  Ca: 10.5 mg/dL
  Cl: 106.8 meq/L
  DBIL: 0.0225 mg/dL
  GLC: 190 mg/dL
  IP: 8.1 mg/dL
  K: 4.5 meq/L
  LDH: 201.5 IU/L
  Na: 140.7 meq/L
  PL: 157.5 mg/dL
  RALB: 4.7 g/dL
  TBIL: 0.2 mg/dL
  TC: 100.8 mg/dL
  TG: 35.8 mg/dL
  TP: 6.5 g/dL
  gamma-GTP: 1 IU/L
[7]
  TERMINAL_BW: 307.7 g
  APTT: 18.5 s
  Bas: 0%
  Eos: 1%
  Fbg: 224.4 mg/dL
  Hb: 14.3 g/dL
  Ht: 42.7%
  Lym: 73.6%
  MCH: 20.6 pg
  MCHC: 33.4%
  MCV: 61.6 fL
  Mono: 6.2%
  Neu: 19.8%
  PT: 12.5 s
  Plat: 99.2 x10_4/uL
  RBC: 694 x10_4/ul
  Ret: 4.5%
  WBC: 138 x10_2/uL
  KIDNEY_L: 1.2 g
  KIDNEY_R: 1.3 g
  KIDNEY_TOTAL: 2.5 g
  LIVER: 22.3 g
  A/G: 2.3
  ALP: 1092 IU/L
  ALT: 36.2 IU/L
  AST: 63.6 IU/L
  BUN: 21 mg/dL
  CRE: 0.6 mg/dL
  Ca: 10.4 mg/dL
  Cl: 107.4 meq/L
  DBIL: 0.022 mg/dL
  GLC: 186 mg/dL
  IP: 7.4 mg/dL
  K: 4.3 meq/L
  LDH: 163.8 IU/L
  Na: 141.7 meq/L
  PL: 144.2 mg/dL
  RALB: 4.4 g/dL
  TBIL: 0.3 mg/dL
  TC: 87.4 mg/dL
  TG: 36.6 mg/dL
  TP: 6.3 g/dL
  gamma-GTP: 1 IU/L
[8]
  TERMINAL_BW: 357.4 g
  APTT: 17.9 s
  Bas: 0%
  Eos: 1.5%
  Fbg: 204 mg/dL
  Hb: 15 g/dL
  Ht: 44.7%
  Lym: 79.2%
  MCH: 19.1 pg
  MCHC: 33.5%
  MCV: 57.1 fL
  Mono: 5.8%
  Neu: 14.2%
  PT: 12.5 s
  Plat: 99.8 x10_4/uL
  RBC: 783.2 x10_4/ul
  Ret: 2.7%
  WBC: 130.6 x10_2/uL
  KIDNEY_L: 1.3 g
  KIDNEY_R: 1.4 g
  KIDNEY_TOTAL: 2.8 g
  LIVER: 22.9 g
  A/G: 2.2
  ALP: 795 IU/L
  ALT: 42.5 IU/L
  AST: 64.5 IU/L
  BUN: 21 mg/dL
  CRE: 0.5 mg/dL
  Ca: 9.6 mg/dL
  Cl: 108.2 meq/L
  DBIL: 0.02 mg/dL
  GLC: 178.2 mg/dL
  IP: 7 mg/dL
  K: 4 meq/L
  LDH: 108.2 IU/L
  Na: 141.9 meq/L
  PL: 120 mg/dL
  RALB: 4 g/dL
  TBIL: 0.3 mg/dL
  TC: 69.5 mg/dL
  TG: 34.5 mg/dL
  TP: 5.9 g/dL
  gamma-GTP: 1.2 IU/L
